Where “and” joins values, the source holds several entries; their conditions need not be identical. Identical values can stand only once.
Biological target: T1, PCSK9 (Homo sapiens, UniProt Q8NBP7)
T1 construct: endogenous in cells; host or cells: HepG2 (ATCC HB-8065)
Experiment: ELISA of secreted (extracellular, medium) PCSK9 in HepG2 cells
Type: cell-based
Conditions: for Activity at 1 μM (% of remaining PCSK9): 1 μM compound; for Activity at 1 μM (% of remaining PCSK9) / Activity at 10 μM (% of remaining PCSK9): HepG2 cells, DMSO = 100%; for Activity at 10 μM (% of remaining PCSK9): 10 μM compound; for IC50: dose-response curves, extracellular PCSK9, cultured HepG2 cells (FIG. 4)
Description: The human hepatoma cell line, HepG2, was cultured and maintained in low glucose Dulbecco's modified Eagle's medium (DMEM) supplemented with 10% fetal bovine serum (FBS) and 1% penicillin, streptomycin solution. (ATCC HB-8065, American Type Culture Collection, Manassas, Va.) The medium was further supplemented with 1% each of nonessential amino acids (NEAA), sodium pyruvate and L-glutamine.
Freshly cultured HepG2 cells were harvested from vacuum gas plasma-treated T75 cell culture flasks and plated onto vacuum gas plasma-treated clear 12 or 96 well plates (Fisher Scientific, Waltham, Mass. catalog nos. 353072 and 353043, respectively) at 70% confluent in 1000 μl/well or 200 μl/well of growth medium respectively. Cell plates were incubated overnight at 37° C. and 5% CO2 prior to compound treatment. For screening experiments, compounds at an initial concentration of 20 mM in 100% DMSO were diluted to different concentrations in growth medium.
For the generation of dose-response curves, compounds at an initial concentration of 20 mM in 100% DMSO were diluted to 30 μM in growth medium. The 30 μM solutions were then serially diluted 10-fold to achieve final concentration of 30 μM, 3 μM, 0.3 μM, 0.03 μM, and 0.003 μM in assay medium. Growth medium was aspirated from the plated cells and medium containing compound was added to the appropriate well. Cells were allowed to incubate for 24 h or 48 h at 37° C. and 5% CO2. Medium was collected from cells and centrifuged at 14,000 rpm for five min. The upper 50% of spun medium was collected and frozen for later analysis. The remaining cells were washed twice with 1000 μl/well or 200 μl/well cold phosphate buffered saline (PBS) at pH 7.4 and placed on ice. Cells were treated with 100 μl/well or 60 μl/well of lysis buffer comprised of 50 mM Tris, pH 8; 1% NP-40; 150 mM NaCl; 1 mM EDTA (purchased from Cell Signaling Technology, Inc., Danvers, Mass., catalog no. 9803) containing 1 mM phenylmethane sulfonyl fluoride (PMSF) and Roche protease inhibitor cocktail (available from Sigma-Aldrich, St. Louis, Mo.). Cells were allowed to incubate in lysis buffer on ice for 30 min. Cells were then collected and frozen overnight. Cells were centrifuged the next day at 14,000 rpm for 15 min. The supernatant was collected and analyzed for total protein or PCSK9 concentration.
Inhibition of secreted PCSK9 was measured in human hepatocellular carcinoma (HepG2) cells using a PCSK9 Quantikine®-brand ELISA kit purchased from R&D Systems, a wholly owned subsidiary of Bio-Techne Corporation, Minneapolis, Minn. (“Human Proprotein Convertase 9/PCSK9 Quantikine® ELISA Kit,” catalog #DPC900). The protocol provided in the kit was followed. Briefly, PCSK9 standards were prepared according to the instructions provided with the kit at final concentrations of 40 ng/mL, 20 ng/mL, 10 ng/mL, 5 ng/mL, 2.5 ng/mL, 1.25 ng/mL, 0.625 ng/mL and 0 ng/mL. The ELISA was conducted with the provided capture antibody-coated 96-well plate. Assay diluent was added to all relevant wells at a volume of 100 μL. 50 μL of sample (medium or cell lysate) or PCSK9 standard (in duplicate) was then added to the appropriate well. The plate was allowed to incubate for 2 h at room temperature. All wells were aspirated and washed four times with 300 μl of wash buffer. After washing, 200 μL of anti-PCSK9-HRP conjugate was added to all wells and the plate was allowed to incubate at room temperature for 2 h. After incubation all wells were aspirated and washed again four times with 300 μL of washing buffer.
After washing was completed, 200 μL of freshly prepared colorimetric reagent was added to all wells and the plate was incubated at room temperature in the dark for 30 min. After this final incubation a stop solution of 1N sulfuric acid was added to all wells, at which point absorbance was measured using a Tecan Infinite M1000 microplate reader at a wavelength of 450 nm (background absorbance was corrected by subtracting the absorbance measured at 540 nm). […]

T1 sequence (Q8NBP7 153-692): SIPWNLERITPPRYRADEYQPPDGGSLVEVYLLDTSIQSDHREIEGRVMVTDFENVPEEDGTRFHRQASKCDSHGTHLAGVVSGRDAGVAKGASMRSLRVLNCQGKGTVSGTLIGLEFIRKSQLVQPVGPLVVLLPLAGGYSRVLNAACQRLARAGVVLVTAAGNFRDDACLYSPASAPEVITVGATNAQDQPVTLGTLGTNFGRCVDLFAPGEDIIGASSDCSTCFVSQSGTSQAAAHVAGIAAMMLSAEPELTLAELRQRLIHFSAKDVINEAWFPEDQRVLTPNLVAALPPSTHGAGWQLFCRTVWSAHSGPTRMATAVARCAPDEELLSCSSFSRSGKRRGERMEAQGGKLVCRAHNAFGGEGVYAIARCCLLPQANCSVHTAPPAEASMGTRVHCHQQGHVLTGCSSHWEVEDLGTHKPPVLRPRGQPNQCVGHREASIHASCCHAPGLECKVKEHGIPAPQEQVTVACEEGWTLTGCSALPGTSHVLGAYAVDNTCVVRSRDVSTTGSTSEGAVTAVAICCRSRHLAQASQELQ

Row | Compound | Activity at 1 μM (% of remaining PCSK9) | Activity at 10 μM (% of remaining PCSK9) | IC50 [nM]
1 | COc1ccc2cc3[n+](cc2c1OC)CCc1cc2c(cc1-3)OCO2 [BBR, berberine, reference compound] | 88% and 69% | 54% and 51% | 
2 | Fc1ccc2nc(Cc3c[nH]c4c(F)cccc34)n(Cc3ccccc3)c2c1 [HX178] | 75% | 31% | 
3 | Fc1ccc2nc(Cc3c[nH]c4c(F)cccc34)n(CCc3ccccc3)c2c1 [HX179] | 62% | 48% | 
4 | Fc1ccc2nc(Cc3c[nH]c4c(F)cccc34)n(Cc3ccncc3)c2c1 [HX181] | 60% | 33% | 
5 | Fc1ccc2nc(Cc3c[nH]c4c(F)cccc34)n(Cc3cccnc3)c2c1 [HX182] | 86% | 89% | 
6 | CC(C)Cn1c(Cc2c[nH]c3c(F)cccc23)nc2ccc(F)cc21 [HX185] | 65% | 42% | 
7 | CC(C)(C)Cn1c(Cc2c[nH]c3c(F)cccc23)nc2ccc(F)cc21 [HX186] | 84% | 73% | 
8 | O=C(c1nc2ccc(F)cc2[nH]1)c1c[nH]c2c(F)cccc12 [HX235] | 28% | 26% | 0.5
9 | O=C(c1cc2ccccc2[nH]1)c1c[nH]c2ccccc12 [HX257] | 25% | 13% | 
10 | O=C(c1cc2ccccc2[nH]1)c1c[nH]c2c(F)cccc12 [HX258] | 20% | 14% | 
11 | O=C(c1cc2cc(F)ccc2[nH]1)c1c[nH]c2ccccc12 [HX259] | 28% | 13% | 
12 | Cn1c(C(=O)c2c[nH]c3c(F)cccc23)nc2ccc(F)cc21 [HX261] | 21% | 20% | 
13 | O=C(c1nc2ccccc2[nH]1)c1c[nH]c2ccccc12 [HX262] | 30% | 20% | 
14 | O=C(c1nc2ccccc2[nH]1)c1c[nH]c2c(F)cccc12 [MF025] | 27% | 21% | 

Next, values leading:

Row | Activity at 1 μM (% of remaining PCSK9) | Activity at 10 μM (% of remaining PCSK9) | IC50 [nM] | Compound
15 | 46% and 40% |  |  | Fc1ccc2[nH]c(Cc3c[nH]c4c(F)cccc34)nc2c1 [HX81]
16 | 70% | 27% |  | OCCn1c(Cc2c[nH]c3c(F)cccc23)nc2ccc(F)cc21 [HX183]
17 | 34% | 10% |  | Cn1c(Cc2c[nH]c3c(F)cccc23)nc2ccc(F)cc21 [HX184]
18 | 45% | 25% |  | [2H]C([2H])(c1nc2cc(F)ccc2[nH]1)c1c[nH]c2c(F)cccc12 [HX212]
19 | 25% | 15% | 13 | O=C(c1cc2cc(F)ccc2[nH]1)c1c[nH]c2c(F)cccc12 [HX240]
20 | 59% and 50% | 17% and 13% | 44 | Fc1ccc2[nH]c(Cc3c[nH]c4c(F)cccc34)cc2c1 [compound 9577]

Reference: patent US11427569B2, “Benzoimidazole indolyl methanes and methods of using them to inhibit PCKS9 and PCKS9-mediated ailments” (Wisconsin Alumni Research Foundation, priority 2019, dated 2022)
